Here are results for 11 compounds from PubChem BioAssay (NCI).

Assay in all cases: DTP human tumour cell line panel, 48 h
Test [1] concerns HOP-92 NSCLC.
The test system of test [2] is SF-539 CNS.
Test [3] concerns DU-145 prostate.
Test [4] concerns SF-268 CNS.
The subject of test [5] is IGROV1 ovarian.
Test [6] concerns M14 melanoma.
In test [7] the test system is OVCAR-5 ovarian.
In test [8] the test system is SF-295 CNS.
Test [9] concerns CAKI-1 renal.
Test [10] relates to HCT-15 colon.
Test [11] has as its system A549 NSCLC.
The subject of test [12] is OVCAR-4 ovarian.
The test system of test [13] is SK-MEL-2 melanoma.
The test system of test [14] is OVCAR-3 ovarian.
Test [15] has as its system K-562 leukemia.
Test [16] concerns MDA-MB-231 breast.
Test [17] has as its system OVCAR-8 ovarian.
Test [18] concerns SK-OV-3 ovarian.
Test [19] relates to NCI-H23 lung.

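A five-concentration, 48-hour dose response in 96-well plates underlies each endpoint, interpolated linearly between surrounding concentrations. At the GI50, growth is halved. TGI: total growth inhibition.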

The term TGI denotes the concentration at which net growth stops. Low values mean greater sensitivity of the cells, high ones lower sensitivity of the cells. Turning to `O=C(CNc1ccc(Cl)cc1)Nn1c(-c2ccccc2)nc2ccccc2c1=O`, the concentration for total growth inhibition (TGI) in test [1] is 13.4 µM; in test [2], 14.9 µM; in [3] it was 28.5 µM; in test [4], 26.9 µM; in [5], 15.7 µM; in test [6] it was 20.3 µM. For the same compound, the TGI was 28.2 µM in [7]; 29.8 µM in [8]; 23.6 µM in test [9]; 18.9 µM in test [10]; 29.4 µM in test [11]; 27 µM in test [12]. For the same compound, the TGI in [13] was found to be 30.4 µM; in test [14] it was 25.8 µM; in test [15], 14.3 µM; in test [16], 13.6 µM; in test [17], 5.53 µM; in test [18] it was 27.8 µM. The TGI in test [19] turned out to be 18 µM.
On to `Cc1cccc2c(N)c3cccc(C(=O)NCCCNCCN)c3nc12`, for which the TGI amounted to 42.7 µM in test [1]; 9.93 µM in test [2]; 17.2 µM in test [3]; 3.19 µM in [4]; 28.9 µM in test [5]; 28.4 µM in test [6]. Besides, the TGI is 38.4 µM in [7]; 20.9 µM in [8]; 26.3 µM in test [9]; greater than 100 µM in test [10]; 15 µM in test [11]; 10.5 µM in test [12]. For the same compound, the total growth inhibition concentration (TGI) in test [13] is 34 µM; in test [14] it was 63.2 µM; in test [15], greater than 100 µM; in [16], 12.9 µM; in test [17] it was 23.6 µM; in test [18], greater than 62.8 µM. The compound further gave a TGI in test [19] of 10.9 µM.
Consider `C=C1CC[C@@]2(OC1)OC1C[C@H]3[C@@H]4CC=C5C[C@@H](O)CC(OC6OCC(OC(=O)[C@@H](O)[C@@H](C)CC)C(OC(C)=O)C6OC6OC(C)C(O)C(O)C6O)[C@]5(C)[C@H]4CC[C@]3(C)C1[C@@H]2C` (stereo not given in full), for which the TGI in test [1] is greater than 10 µM; in test [2] it was 5.21 µM; in test [3] it was 4.35 µM; in test [4], 4.12 µM; in test [5] it was 7.79 µM; in test [6] it was 4.45 µM. Moreover, the TGI was 4.89 µM in test [7]; 3.27 µM in [8]; 7.85 µM in test [9]; 3.67 µM in [10]; 4.73 µM in [11]; greater than 10 µM in [12]. The concentration for total growth inhibition (TGI) stood at 3.11 µM in test [13]; 3.77 µM in [14]; 4.71 µM in test [15]; 3.23 µM in test [16]; 4.31 µM in test [17]; 3.57 µM in test [18]. This compound also gave a TGI in test [19] of 6.57 µM.
With `Cc1c(Cc2ccccc2)n(COCCCO)c(=O)[nH]c1=O`, the concentration for total growth inhibition (TGI) in [1], in test [2], in test [3], in [4], in test [5] and in test [6] was greater than 100 µM in each case. In addition, the TGI in [7], in test [8], in test [9], in test [10], in [11] and in test [12] was greater than 100 µM in each case. For the same compound, the TGI in test [13], in test [14], in [15], in test [16], in [17] and in [18] was greater than 100 µM throughout. The compound also came in with a concentration for total growth inhibition (TGI) in test [19] greater than 100 µM.
For the compound `Cc1[nH]c(=O)[nH]c(=S)c1C(=O)NC(C)(CO)CO`, the total growth inhibition concentration (TGI) in test [1], in test [2], in test [3], in [4], in test [5] and in test [6] was greater than 100 µM in each case. In addition, the total growth inhibition concentration (TGI) in [7], in test [8], in test [9], in [10], in test [11] and in test [12] was greater than 100 µM in each case. In addition, the TGI in [13], in [14], in test [15], in test [16], in [17] and in test [18] was greater than 100 µM throughout. The concentration for total growth inhibition (TGI) in test [19] was greater than 100 µM.
For the compound `C[N+](C)(N)CCC[N+](C)(C)N`, the TGI in [1], in test [2], in [3], in test [4], in [5] and in test [6] was greater than 100 µM in each case. Also, the TGI in test [7], in test [8], in test [9], in test [10], in [11] and in test [12] was greater than 100 µM each time. In addition, the total growth inhibition concentration (TGI) in [13], in test [14], in test [15], in test [16], in [17] and in [18] was greater than 100 µM in each case. The compound also gave a TGI in test [19] greater than 100 µM.
For `CC(C)NC(=O)OCc1c(COC(=O)NC(C)C)c(-c2ccc[n+](COC(=O)CC(C)(C)C)c2)n2c1CCC2`, the TGI in test [1], in [2], in test [3], in test [4], in [5] and in test [6] was greater than 100 µM throughout. Besides, the TGI in test [7], in test [8], in test [9], in test [10], in test [11] and in [12] was greater than 100 µM each time. Also, the TGI in test [13], in test [14], in test [15], in [16], in test [17] and in [18] was greater than 100 µM in each case. Moreover, the TGI in [19] is greater than 100 µM.
The term GI50 denotes the concentration that inhibits growth by half. For the compound `COc1cc(C2c3cc4c(cc3[C@H](OCCN(C)C)[C@@H]3COC(=O)C23)OCO4)cc(OC)c1O` (stereo not given in full), the TGI in [1] is 1.5 µM; in test [2], 0.449 µM; in [3], 0.549 µM; in [4], 2.97 µM; in test [5], 7.5 µM; in [6] it was 2.58 µM. The TGI in test [7] is 3.82 µM; in test [8], 0.583 µM; in test [9] it was 1.07 µM; in [10], greater than 100 µM; in test [11], 1.34 µM; in test [12], 4.97 µM. Further, the TGI was 2.44 µM in test [13]; 4.08 µM in test [14]; 15.9 µM in [15]; 39.3 µM in test [16]; 2.92 µM in [17]; 1.31 µM in test [18]. The compound further yielded a TGI in [19] of 1.3 µM. In test [10], the GI50 is 0.344 µM.
As to `CC(=O)NNc1nc(C)c(C(/C=C/c2cccc([N+](=O)[O-])c2)=N/NC(=S)NN)s1`, the TGI in test [1], in test [2], in test [3], in [4], in test [5] and in [6] was greater than 100 µM each time. Moreover, the concentration for total growth inhibition (TGI) in [7], in test [8], in test [9], in test [10], in [11] and in [12] was greater than 100 µM each time. For the same compound, the TGI in test [13], in [14], in test [15], in test [16], in [17] and in test [18] was greater than 100 µM each time. Further, the TGI in test [19] was greater than 100 µM.
Regarding `Brc1ccc2c(-c3nc(-c4c[nH]c5ccc(Br)cc45)cs3)c[nH]c2c1`, the TGI is 11 µM in [1]; 18.1 µM in test [2]; 19.1 µM in [3]; 17.7 µM in test [4]; 16.9 µM in test [5]; 13.8 µM in test [6]. Moreover, the TGI stood at 10.4 µM in test [7]; 17.8 µM in test [8]; 14.5 µM in [9]; 13.1 µM in test [10]; 17 µM in [11]; 24.3 µM in [12]. The total growth inhibition concentration (TGI) in test [13] is 20.7 µM; in test [14], 28 µM; in test [15], greater than 22.3 µM; in test [16], 18.4 µM; in test [17], 25.3 µM; in test [18] it was 29.4 µM. In test [19], this compound yielded a TGI of 13.3 µM.
With `CC(=O)c1cccc2c1CC1(C2)Cc2ccc3c(c2C1=O)CCC3` (stereo not given), the total growth inhibition concentration (TGI) in test [1] is 64.2 µM; in [2], greater than 100 µM; in test [3], greater than 100 µM; in test [4], greater than 100 µM; in test [5], greater than 100 µM; in test [6] it was greater than 100 µM. Further, the total growth inhibition concentration (TGI) in test [7], in test [8], in [9], in test [10], in [11] and in test [12] was greater than 100 µM in each case. The TGI in [13], in test [14], in [15], in [16], in test [17] and in test [18] was greater than 100 µM in each case. In test [19], this compound yielded a TGI greater than 100 µM.
